Starred links: 1 amine or outer side, 2 acyl side, 3 side chain; linkers in the order of their positions; H or OH if unused. Positions of bridges follow the written chain, without caps; N, C: chain ends. Non-standard residues stand in square brackets, D forms with d. Residues, ends and D or L forms follow the SMILES beside them. Chains are numbered I, II in the order given. *: point of attachment. 5FAM = O=C1OC2(c3ccc(O)cc3Oc3cc(O)ccc32)c2ccc(C(=O)*)cc21; 2Nal = N[C@@H](Cc1ccc2ccccc2c1)C(=O)O; mXylylene = c1cc(C[*:1])cc(C[*:2])c1; Dap = NC[C@H](N)C(=O)O; AEEA = NCCOCCOCC(=O)O
What was measured:
SW480 cells = type: cell-based; details: at the highest concentration tested (20 μM)
Protocol: (§1) MTT Assay. SW480 (Wnt-addicted) and MCF7 (Wnt-independent) cells were seeded in 96-well plate with 3×10^3 cells per well, and allowed to grow overnight. […] After that, 10 μL of an MTT stock solution (5 mg/mL) was added into each well and the plate was incubated at 37° C. for 4 h. 100 μL of SDS-HCl solubilizing solution was added and the plate was incubated at 37° C. overnight. The absorbance of the formazan product formed was measured at 570 nm on a Tecan microtiter plate reader. Cells were incubated with serially diluted compounds for 72 hours in the presence of 10% FBS. Data reported represent the mean±SD of 3 independent experiments.
(§2) Cell Viability Assay. Cell viability was determined using the MTT assay. […] Trypsin was neutralized with the addition of warm DPBS and cells were pelleted down at 200 g for 5 min at 4° C. […] Com-pounds were serially diluted in DPBS with standardized DMSO concentration (0.5% v/v) and added to each well. […] After that, 10 μL of MTT solution was added to each well, followed by incubation for 4 h at 37° C., 5% CO2. […] The next day, A565 was determined using a Tecan M1000 Infinite plate reader and absorbance values were standardized against cell-free wells and normalized to untreated control cells. Data was analyzed using GraphPad Prism v. […]

β-catenin [1] = target: T1, β-catenin (Homo sapiens, UniProt P35222); test: FP-based competition assay for binding to β-catenin
T1 construct: cells harboring plasmid pGEX-β-catenin(133-665)52 were grown in LB medium; made in house; host or cells: E. coli BL21 (DE3)
T1 sequence (P35222 133-665): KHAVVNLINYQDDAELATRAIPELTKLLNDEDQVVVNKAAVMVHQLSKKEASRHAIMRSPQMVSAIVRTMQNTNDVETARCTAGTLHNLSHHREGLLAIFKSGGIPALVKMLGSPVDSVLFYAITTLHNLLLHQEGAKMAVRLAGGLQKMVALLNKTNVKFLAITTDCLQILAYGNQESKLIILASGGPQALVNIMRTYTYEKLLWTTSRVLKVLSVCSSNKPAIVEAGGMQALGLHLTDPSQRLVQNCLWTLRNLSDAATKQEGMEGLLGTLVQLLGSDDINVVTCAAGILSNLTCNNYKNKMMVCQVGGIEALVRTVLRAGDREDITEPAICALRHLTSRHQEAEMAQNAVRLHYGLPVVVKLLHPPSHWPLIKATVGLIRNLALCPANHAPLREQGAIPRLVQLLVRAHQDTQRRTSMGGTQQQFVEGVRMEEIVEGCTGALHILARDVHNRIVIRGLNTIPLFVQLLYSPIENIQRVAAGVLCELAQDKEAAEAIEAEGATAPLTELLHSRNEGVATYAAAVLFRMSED
Protocol: Samples were transferred into black-on-black 384-well non-binding microplates (Greiner) and FP was measured using a Tecan M1000 Infinite plate reader. The data were analyzed using GraphPad Prism v. 8.0 and normalized to FP values corresponding to fully bound/unbound probe. All binding values reported are the mean±SD of independent experiments.
Protein Purification. […] Cells were harvested by centrifugation and lysed in lysis buffer (20 mM Tris, pH 8.0, 150 mM NaCl, 2 mM DTT, 1% Triton-X100, 200 mM EDTA, 10 mg/mL PMSF, and 0.2 mg/mL lysozyme) on ice for 20 min, followed by sonication (8 s off, 2 s on, 1 min total, performed twice at 70% amplitude). The homogenate was centrifuged (13,000 g for 30 min at 4° C. and the clear supernatant was loaded onto an equilibrated glutathione-agarose column. After exhaustive washing with wash buffer (20 mM Tris, pH 7.4, 150 mM NaCl, 2 mM DTT), the bound GST-β-catenin was eluted with wash buffer supplemented with 10 mM glutathione, concentrated, and stored at −80° C. in 30% glycerol.

MCF7 cells = test: MTT cell viability assay, MCF7 (Wnt-independent) cells; type: cell-based; details: up to 20 μM
Protocol: as §1, §2

β-catenin [2] = target: T1, β-catenin; test: FP direct binding of FAM-labeled peptide 1 to GST-β-catenin; details: 10 nM peptide 1 with serial dilutions of GST-β-catenin, read-out: KD or IC50
Protocol: Protein-Ligand Binding Assays. Peptide 1: Binding affinity was determined using FP. Peptide 1 (10 nM) was added to serial dilutions of GST-β-catenin in 20 mM Tris, 300 mM NaCl, pH 8.8, 0.01% Triton-X100 as reported previously. 34 After 1 h, aliquots were transferred from the reaction mixtures into black-on-black 384-well non-binding plates (Greiner) and FP was measured using a Tecan Infinite M1000 Pro plate reader. The KD value was calculated using KaleidaGraph v. 3.6 using the equation below.
Protein Purification. For β-catenin, E. coli BL21 (DE3) cells harboring plasmid pGEX-β-catenin(133-665)52 were grown in LB medium supplemented with 50 mg/L ampicillin at 37° C. to an OD600 of 0.6 before induction with 0.2 mM IPTG overnight at 30° C. Cells were harvested by centrifugation and lysed in lysis buffer (20 mM Tris, pH 8.0, 150 mM NaCl, 2 mM DTT, 1% Triton-X100, 200 mM EDTA, 10 mg/mL PMSF, and 0.2 mg/mL lysozyme) on ice for 20 min, followed by sonication (8 s off, 2 s on, 1 min total, performed twice at 70% amplitude). The homogenate was centrifuged (13,000 g for 30 min at 4° C. and the clear supernatant was loaded onto an equilibrated glutathione-agarose column. After exhaustive washing with wash buffer (20 mM Tris, pH 7.4, 150 mM NaCl, 2 mM DTT), the bound GST-β-catenin was eluted with wash buffer supplemented with 10 mM glutathione, concentrated, and stored at −80° C. in 30% glycerol.

Human serum stability = type: in vitro ADME
Protocol: Human Serum Stability. […] After protein precipitation was complete, each aliquot was centrifuged (15000 g, 5 min, 4° C.) and analyzed by RP-HPLC. The percentage of remaining peptide at a given time point was determined by integrating the peak area and compared it to that of the untreated control (100%).

GST-β-catenin, P35222 = target: T2, GST-β-catenin, P35222; test: fluorescence polarization; 10 nM FAM-peptide 1 against serial dilutions of GST-β-catenin
T2 chain: T1 sequence (P35222 133-665)

## CC[C@H](C)[C@@H]1NC(=O)[C@@H](NC(=O)[C@H](CCC(=O)O)NC(=O)[C@@H]2CCCN2C(=O)[C@H](Cc2ccc(O)cc2)NC(=O)CNC(=O)CNC(C)=O)CC(=O)NCCCC[C@@H](C(=O)N[C@@H](CC(=O)O)C(=O)N[C@@H](CC(C)C)C(=O)N[C@@H](CCC(N)=O)C(=O)N[C@@H](CCCNC(=N)N)C(=O)N[C@H](C(=O)N[C@@H](C)C(=O)N[C@@H](CC(C)C)C(=O)NCCOCCOCC(=O)NCCOCCOCC(=O)N[C@@H](CNC(=O)CC[C@@H]2NC(=O)[C@@H](CCCNC(=N)N)NC(=O)[C@H](CCCNC(=N)N)NC(=O)[C@@H](CCCNC(=N)N)NC(=O)[C@H](CCCNC(=N)N)NC(=O)[C@H](Cc3ccc4ccccc4c3)NC(=O)[C@@H](Cc3ccccc3)NC2=O)C(N)=O)C(C)C)NC(=O)[C@H](Cc2c[nH]cn2)NC(=O)[C@H](CC(C)C)NC1=O [peptide 3] (I: Ac-GGYPEDILHKDLQRVAL[AEEA][AEEA][Dap]-NH2 / II: cyclo([2Nal]R[dR]R[dR]E[dF]); lactam I:6-I:10 (inferred); amide I:20-II:6 (inferred); ring closure inferred)
SW480 cells
  viability of SW480 cells: only slight decreases
β-catenin [1]; relative to peptide 2
  lower affinity for β-catenin than peptide 2: ~10 fold

## CC[C@H](C)[C@@H]1NC(=O)[C@@H](NC(=O)[C@H](CCC(=O)O)NC(=O)[C@@H]2CCCN2C(=O)[C@H](Cc2ccc(O)cc2)NC(=O)CNC(=O)CNC(C)=O)CC(=O)NCCCC[C@@H](C(=O)N[C@@H](Cc2c[nH]cn2)C(=O)N[C@@H](CC(C)C)C(=O)N[C@@H](CCC(N)=O)C(=O)N[C@@H](CCCNC(=N)N)C(=O)N[C@H](C(=O)N[C@H](C(=O)N[C@@H](CC(C)C)C(=O)NCCOCCOCC(=O)NCCOCCOCC(=O)N[C@@H](CNC(=O)[C@H](CCCNC(=N)N)NC(=O)[C@H](CCCNC(=N)N)NC(=O)[C@H](CCCNC(=N)N)NC(=O)[C@H](CCCNC(=N)N)NC(=O)[C@H](CCCNC(=N)N)NC(=O)[C@H](CCCNC(=N)N)NC(=O)[C@H](CCCNC(=N)N)NC(=O)[C@H](CCCNC(=N)N)NC(=O)[C@@H](N)CCCNC(=N)N)C(N)=O)[C@@H](C)CC)C(C)C)NC(=O)[C@H](CC(=O)O)NC(=O)[C@H](CC(C)C)NC1=O [peptide 5]
MCF7 cells
  effect on MCF7 cell viability: reduced the viability of MCF7 cells

## CC[C@H](C)[C@@H]1NC(=O)[C@@H](NC(=O)[C@H](CCC(=O)O)NC(=O)[C@@H]2CCCN2C(=O)[C@H](Cc2ccc(O)cc2)NC(=O)CNC(=O)CNC(=O)c2ccc3c(c2)C(=O)OC32c3ccc(O)cc3Oc3cc(O)ccc32)CSCc2cccc(c2)CSC[C@@H](C(=O)N[C@@H](Cc2c[nH]cn2)C(=O)N[C@@H](CC(C)C)C(=O)N[C@@H](CCC(N)=O)C(=O)N[C@@H](CCCNC(=N)N)C(=O)N[C@H](C(=O)N[C@H](C(=O)N[C@@H](CC(C)C)C(N)=O)[C@@H](C)CC)C(C)C)NC(=O)[C@H](CC(=O)O)NC(=O)[C@H](CC(C)C)NC1=O [peptide 1] (5FAM-GGYPECILDCHLQRVIL-NH2; linker 6-10 via mXylylene)
β-catenin [2]
  Kd: 18 nM

## CC[C@H](C)[C@@H]1NC(=O)[C@@H](NC(=O)[C@H](CCC(=O)O)NC(=O)[C@@H]2CCCN2C(=O)[C@H](Cc2ccc(O)cc2)NC(=O)CNC(=O)CNC(C)=O)CC(=O)NCCCC[C@@H](C(=O)N[C@@H](Cc2c[nH]cn2)C(=O)N[C@@H](CC(C)C)C(=O)N[C@@H](CCC(N)=O)C(=O)N[C@@H](CCCNC(=N)N)C(=O)N[C@H](C(=O)N[C@H](C(=O)N[C@@H](CC(C)C)C(=O)NCCOCCOCC(=O)NCCOCCOCC(=O)N[C@@H](CNC(=O)[C@H](CCC(N)=O)NC(=O)[C@@H]2CCCN2C(=O)[C@@H]2CCCN2C(=O)[C@H](CCCNC(=N)N)NC(=O)[C@H](CCCNC(=N)N)NC(=O)[C@H](CCCNC(=N)N)NC(=O)[C@H](CCC(N)=O)NC(=O)[C@H](CCCNC(=N)N)NC(=O)[C@H](CCCNC(=N)N)NC(=O)[C@H](CCCCN)NC(=O)[C@H](CCCCN)NC(=O)[C@H](CCCNC(=N)N)NC(=O)CN)C(N)=O)[C@@H](C)CC)C(C)C)NC(=O)[C@H](CC(=O)O)NC(=O)[C@H](CC(C)C)NC1=O [peptide 4]
MCF7 cells
  effect on MCF7 cell viability: reduced the viability of MCF7 cells

## CC[C@H](C)[C@@H]1NC(=O)[C@@H](NC(=O)[C@H](CCC(=O)O)NC(=O)[C@@H]2CCCN2C(=O)[C@H](Cc2ccc(O)cc2)NC(C)=O)CC(=O)NCCCC[C@@H](C(=O)N[C@@H](Cc2c[nH]cn2)C(=O)N[C@@H](CC(C)C)C(=O)N[C@@H](CCC(N)=O)C(=O)N[C@@H](CCCNC(=N)N)C(=O)N[C@H](C(=O)N[C@H](C(=O)N[C@@H](CC(C)C)C(N)=O)[C@@H](C)CC)C(C)(C)O)NC(=O)[C@H](CC(=O)O)NC(=O)[C@H](CC(C)C)NC1=O [Peptide 37]
Human serum stability; relative to peptide 9
  serum stability compared to peptide 9: identical
β-catenin [1]; relative to peptide 9
  binding affinity for β-catenin compared to peptide 9: identical

## CC[C@H](C)[C@@H]1NC(=O)[C@@H](NC(=O)[C@H](CCC(=O)O)NC(=O)[C@@H]2CCCN2C(=O)[C@H](Cc2ccc(O)cc2)NC(=O)CNC(=O)CNC(C)=O)CC(=O)NCCCC[C@@H](C(=O)N[C@@H](Cc2c[nH]cn2)C(=O)N[C@@H](CC(C)C)C(=O)N[C@@H](CCC(N)=O)C(=O)N[C@@H](CCCNC(=N)N)C(=O)N[C@H](C(=O)N[C@H](C(=O)N[C@@H](CC(C)C)C(=O)NCCC(N)=O)[C@@H](C)CC)C(C)(C)C)NC(=O)[C@H](CC(=O)O)NC(=O)[C@H](CC(C)C)NC1=O [Peptide 9, Ac-GGYPEDILDKHLQRZIL(β-Ala)-NH2]
Human serum stability; human, human serum diluted 1:4 in DPBS, human serum, read-out: serum t1/2 (converted)
  half-life at 100 μM: ~12 h
β-catenin [1]; IC50, competition with FAM-labeled peptide 1 (10 nM), 50 nM GST-β-catenin, read-out: KD or IC50
  IC50: 305 ± 19 nM

## GGYPECILDCHLQRVIL (modifications not checked) [peptide 1]
GST-β-catenin, P35222
  Kd: 18 nM
